Some test systems named below: M14; HOP-92; MDA-N; K562; NCI-H23; NCI-H460; SNB-75; ACHN; SK-MEL-5; OVCAR-3; XF498; NCI-H522; UO-31; SN12C; EKVX; SW-620; MDA-MB-435; DU-145; HCT-116; CCRF-CEM.
What all share (experiment): DTP human tumour cell line panel, 48 h

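Results reflect a 48-hour exposure of cells in 96-well plates to compound at five concentrations. The concentration for 50% growth inhibition is given as GI50.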 Calls of active or inactive are those of the source. Cut-off read from the data, not from the text of the source: active = GI50 up to about 1.1 µM and inactive = higher.

As usually defined, the GI50 is the concentration that inhibits growth by half.

Turning to `Nc1ccc2c(SCc3ccc([N+](=O)[O-])cc3)c3ccccc3nc2c1`, the GI50 in the assay with M14 is 11.4 µM (inactive); in the assay on HOP-92, 15.2 µM (inactive); with MDA-N, 12.8 µM (inactive); in the assay on K562 it was 3.54 µM (inactive); in the assay on NCI-H23, 17 µM (inactive); with NCI-H460 it was 21.7 µM (inactive). Also, the GI50 in the assay with SNB-75 was 17.7 µM (inactive); in the assay on ACHN, 5 µM (inactive); in the assay on SK-MEL-5, 15.2 µM (inactive); in the assay on OVCAR-3, 15.8 µM (inactive); with XF498, 14.6 µM (inactive); in the assay with NCI-H522, 3.47 µM (inactive). The GI50 was 14 µM (inactive) in the assay on UO-31; 18.6 µM (inactive) in the assay with SN12C; 24.8 µM (inactive) in the assay on EKVX; 2.87 µM (inactive) in the assay on SW-620; 14.5 µM (inactive) in the assay with MDA-MB-435; 13.4 µM (inactive) in the assay with DU-145. Moreover, the GI50 with HCT-116 is 7.53 µM (inactive); with CCRF-CEM it was 1.35 µM (inactive).

Consider `COC1/C=C\C=C(/C)C(=O)Nc2cc3nc4ccc(Br)cc4oc-3c(c2=O)CC(C)CC(OC)C(O)C(C)/C=C(\C)C1OC(N)=O` (stereo not drawn), for which the GI50 was 0.0453 µM (active) in the assay on M14; 0.0134 µM (active) in the assay with HOP-92; 0.00451 µM (active) in the assay with MDA-N; 0.01 µM (active) in the assay with K562; 0.63 µM (active) with NCI-H460; 7.08 µM (inactive) in the assay with SNB-75. For the same compound, the GI50 in the assay with ACHN is 0.21 µM (active); with SK-MEL-5 it was 0.178 µM (active); in the assay with OVCAR-3 it was 0.082 µM (active); in the assay on XF498, < 0.0202 µM (active); with NCI-H522, 0.01 µM (active); with UO-31, 0.12 µM (active). Besides, the GI50 with SN12C was 0.0481 µM (active); with EKVX, 3.17 µM (inactive); in the assay with SW-620, 0.01 µM (active); in the assay on MDA-MB-435, 0.00389 µM (active); in the assay with DU-145, 0.0458 µM (active); in the assay with HCT-116 it was 0.0276 µM (active).

`C=C(C)C(=O)/N=C(\N)NC#N`: the GI50 in the assay on M14 is 45.3 µM (inactive); with HOP-92 it was 14.2 µM (inactive); with MDA-N, 39.4 µM (inactive); in the assay on K562 it was 21.8 µM (inactive); in the assay on NCI-H23 it was 72.3 µM (inactive); with NCI-H460, > 75 µM (inactive). For the same compound, the GI50 with SNB-75 is 67.9 µM (inactive); in the assay with ACHN, 138 µM (inactive); with SK-MEL-5 it was 75.2 µM (inactive); with OVCAR-3, 68.7 µM (inactive); with XF498 it was 41.8 µM (inactive); in the assay with NCI-H522, 5.81 µM (inactive). The GI50 with UO-31 was > 62.7 µM (inactive); in the assay on SN12C, 36.4 µM (inactive); with EKVX, > 54 µM (inactive); in the assay on SW-620 it was 19.3 µM (inactive); in the assay on MDA-MB-435, 131 µM (inactive); in the assay with DU-145, 70.5 µM (inactive). In addition, the GI50 in the assay on HCT-116 is 31.6 µM (inactive); with CCRF-CEM, 23.7 µM (inactive).

Regarding `CCN(CC)CCNc1ccc2ncn3c4cc(O)ccc4c(=O)c1c23`, the GI50 in the assay with M14 was 4.5 µM (inactive); in the assay on HOP-92, 0.519 µM (active); with K562 it was 2.11 µM (inactive); in the assay on NCI-H23, 3.55 µM (inactive); in the assay with NCI-H460, 3.04 µM (inactive); in the assay with SNB-75, 4.39 µM (inactive). Also, the GI50 is 1.61 µM (inactive) in the assay on ACHN; 3.66 µM (inactive) in the assay on SK-MEL-5; 3.37 µM (inactive) with OVCAR-3; 2.9 µM (inactive) in the assay on XF498; 1.22 µM (inactive) in the assay on NCI-H522; 5.71 µM (inactive) with UO-31. Also, the GI50 is 3.11 µM (inactive) in the assay with SN12C; 8.77 µM (inactive) in the assay on EKVX; 1.88 µM (inactive) in the assay with SW-620; 1.57 µM (inactive) in the assay on HCT-116; 1.32 µM (inactive) with CCRF-CEM.

Take `O=C(/C=C/c1ccccc1)Oc1cccc2cccnc12`: the GI50 in the assay on M14 is 4.11 µM (inactive); in the assay on HOP-92 it was 17.5 µM (inactive); in the assay on K562, 3.85 µM (inactive); in the assay with NCI-H23, 3.72 µM (inactive); in the assay with NCI-H460 it was 3.62 µM (inactive); with SNB-75, 14.3 µM (inactive). In addition, the GI50 with ACHN is 20.3 µM (inactive); in the assay on SK-MEL-5, 7.74 µM (inactive); in the assay with OVCAR-3 it was 2.96 µM (inactive); in the assay with XF498 it was 11.3 µM (inactive); in the assay on NCI-H522, 1.09 µM (active); in the assay with UO-31 it was 6.35 µM (inactive). Besides, the GI50 in the assay on SN12C is 3.97 µM (inactive); with EKVX it was 6.65 µM (inactive); with SW-620, 3.82 µM (inactive); in the assay with HCT-116, 3.33 µM (inactive); in the assay with CCRF-CEM it was 3.18 µM (inactive).

For the compound `[O-][n+]1c(-c2ccccc2)oc2ccccc21`, the GI50 is 11 µM (inactive) with M14; > 100 µM (inactive) with HOP-92; 11.9 µM (inactive) with K562; 11.3 µM (inactive) with NCI-H23; 4.98 µM (inactive) with NCI-H460; 16.7 µM (inactive) in the assay on SNB-75. Moreover, the GI50 with ACHN is 15 µM (inactive); in the assay with SK-MEL-5 it was 2.25 µM (inactive); in the assay on OVCAR-3 it was 18.5 µM (inactive); in the assay with XF498, 35.6 µM (inactive); with NCI-H522 it was 12 µM (inactive); in the assay with UO-31 it was 13.1 µM (inactive). In addition, the GI50 in the assay on SN12C was 14.4 µM (inactive); in the assay on EKVX, 26.7 µM (inactive); in the assay with SW-620 it was 16.6 µM (inactive); in the assay with HCT-116, 13.1 µM (inactive); with CCRF-CEM it was > 62.1 µM (inactive).

With `CN1C(=O)CC2(C)c3cc(O)cc(Br)c3N(C)C12` (stereo not drawn), the GI50 in the assay with M14 is > 100 µM (inactive); in the assay with HOP-92, > 100 µM (inactive); in the assay with K562 it was > 100 µM (inactive); in the assay on NCI-H23, > 100 µM (inactive); in the assay with NCI-H460 it was > 100 µM (inactive); in the assay with SNB-75, 30.8 µM (inactive). The GI50 is > 100 µM (inactive) in the assay with ACHN; > 100 µM (inactive) in the assay with SK-MEL-5; > 100 µM (inactive) in the assay on OVCAR-3; > 100 µM (inactive) in the assay with XF498; > 100 µM (inactive) with NCI-H522; 57.7 µM (inactive) in the assay with UO-31. The GI50 in the assay with SN12C, in the assay with EKVX, with SW-620, in the assay with HCT-116 and with CCRF-CEM was > 100 µM (inactive) each time.

Turning to `COC(=O)[C@@]12OC[C@]34[C@H]([C@@H](O)[C@@H]1O)[C@@]1(C)CC(=O)C(O)=C(C)[C@@H]1C[C@H]3OC(=O)[C@H](OC(=O)/C=C(\C)C(C)C)[C@@H]24` [BRUCEANTIN], the GI50 in the assay with M14 was 0.00346 µM (active); in the assay on HOP-92, 0.0328 µM (active); with MDA-N it was < 0.0101 µM (active); with K562, 0.02 µM (active); in the assay on NCI-H23 it was 0.02 µM (active); with NCI-H460, 0.02 µM (active). For the same compound, the GI50 in the assay with SNB-75 is 0.02 µM (active); with ACHN it was 0.0026 µM (active); in the assay with SK-MEL-5 it was 0.02 µM (active); in the assay on OVCAR-3 it was 0.0247 µM (active); with XF498, 0.02 µM (active); in the assay with UO-31, 0.0598 µM (active). Also, the GI50 was 0.0222 µM (active) in the assay on SN12C; 0.0223 µM (active) with EKVX; 0.02 µM (active) in the assay on SW-620; 0.0188 µM (active) in the assay with MDA-MB-435; 0.0142 µM (active) in the assay on DU-145; 0.02 µM (active) with HCT-116. The GI50 with CCRF-CEM is 0.02 µM (active).

As to `C#C[C@]1(O)CCC2C3CCc4cc(Oc5nc(F)nc(-n6c(C)nc7cc8ccccc8cc76)n5)ccc4C3CCC21C` (stereo partly drawn), the GI50 was 43.8 µM (inactive) in the assay with M14; 16.3 µM (inactive) in the assay with HOP-92; 34 µM (inactive) in the assay with K562; 59.4 µM (inactive) with NCI-H23; 25.4 µM (inactive) with NCI-H460; 35.6 µM (inactive) in the assay with SNB-75. The GI50 in the assay with ACHN is 61.4 µM (inactive); in the assay on SK-MEL-5 it was 35.6 µM (inactive); in the assay on OVCAR-3 it was 50.1 µM (inactive); with XF498 it was 61 µM (inactive); with NCI-H522 it was 37.3 µM (inactive); in the assay with UO-31, 75.2 µM (inactive). The GI50 in the assay on SN12C is 37.5 µM (inactive); with EKVX, 9.35 µM (inactive); in the assay with SW-620, 35 µM (inactive); with HCT-116, 32.8 µM (inactive); with CCRF-CEM it was 36.9 µM (inactive).

In the case of `CCOC(=O)C(=O)Nc1ccc(Cl)cc1C`, the GI50 in the assay on M14, with HOP-92, in the assay on K562, with NCI-H23, with NCI-H460 and with SNB-75 was > 100 µM (inactive) each time. For the same compound, the GI50 with ACHN, in the assay on SK-MEL-5, in the assay on OVCAR-3, with XF498, in the assay on NCI-H522 and in the assay with UO-31 was > 100 µM (inactive) in each case. Further, the GI50 in the assay on SN12C, in the assay on EKVX, with SW-620, with HCT-116 and with CCRF-CEM was > 100 µM (inactive) in each case.

Take `O=C(O)COc1ccc(C(=O)/C(SS/C(C(=O)c2ccc(OCC(=O)O)c(Cl)c2Cl)=C2\C=C(c3ccc(F)cc3)SS2)=C2/C=C(c3ccc(F)cc3)SS2)c(Cl)c1Cl`: the GI50 was 23.6 µM (inactive) in the assay with M14; 3.75 µM (inactive) with HOP-92; 4.22 µM (inactive) in the assay on K562; 13.2 µM (inactive) in the assay on NCI-H23; 21.7 µM (inactive) in the assay with NCI-H460; 17.2 µM (inactive) in the assay with SNB-75. Also, the GI50 is 18.6 µM (inactive) in the assay on ACHN; 17.5 µM (inactive) in the assay on SK-MEL-5; 9.46 µM (inactive) in the assay on OVCAR-3; 5.22 µM (inactive) in the assay on XF498; 2.38 µM (inactive) with NCI-H522; 15.7 µM (inactive) in the assay with UO-31. The GI50 is 14.7 µM (inactive) in the assay with SN12C; 38.6 µM (inactive) with EKVX; 15.6 µM (inactive) in the assay with SW-620; 49.4 µM (inactive) with MDA-MB-435; 26.6 µM (inactive) in the assay with DU-145; 9.29 µM (inactive) in the assay on HCT-116. Also, in the assay with CCRF-CEM, the GI50 is 4.95 µM (inactive).

Values taken from ChEMBL document CHEMBL1201862, “PubChem BioAssay data set” (2004).
